Assay results: patent US6326023A, “Synergistic anti-malarial formulation” (priority 2000, dated 2001)

What was measured:
[1] = tested on: P. yoelli nigeriensis (MDR II); experiment: Blood schizontocidal action of arteether α/β formulation by rectal route in infected Swiss mice; format: in vivo, P. yoelli nigeriensis (MDR II) in Swiss mice
Experimental: α,β-Arteether mixture dissolved in neutralized ground-nut oil was administered to P. yoelli nigeriewis (MDR II) infected mice at 10 mg/kg to 20 mg/kg dose from day 0 to day 2 (for 3 consecutive days) by intra-rectal route. Drug was administered with 0.05-0.25 ml oil (vehicle) in single dose or in 2 divided dose daily. Parasitaemia was recorded daily from tail blood smears stained with Giemsa stain and results are given as % parasitaemia (means±SD). […] Presumptive arteether rectal formulation or suppository administration can save mortality in severe/complicated cases. α/β Arteether rectal route controls the severity of infection and prevents mortality in severe complicated comatose malaria cases and will be specially useful in infants, children and those having frequent vomiting and can not be given oral formulation initially. […] Rectal route α/β arteether formulation remains 1st line of emergency treatment of comatose P. falciparum cases in areas of MDR.

[2] = tested on: P. yoelli nigeriensis (MDR II); experiment: Blood schizonticidal activity of oral arteether formulation prepared in DMSO-distilled water in infected Swiss mice; format: in vivo, P. yoelli nigeriensis (MDR II) in Swiss mice; details: for Bioavailability by oral route: suspension in DMSO/distilled water
Experimental: Swiss mice 25±1 gm infected intraperitoneally with 1×10^7 parasitized rbcs were administered α/β formulation, prepared in DMSO (3-4 drop) and then suspended in distilled water by oral administration at various doses ranging between 40-100 mg/kg for 5 consecutive days.
Parasitaemia was recorded periodically from tail blood smears upto 28 days of observation. Both 60 and 80 mg/kg×5 doses were able to eliminate the prasitaemia upto 28 days of observation and were curative. […] A very high dose is required for curative action against MDR of infection and its bioavailability by oral route as suspension in D.W. is low.

[3] = tested on: P. yoelii nigeriensis (MDR II); experiment: Blood schizonticidal activity of α/β arteether formulation in neutralized oil by oral route in infected Swiss mice; format: in vivo, P. yoelii nigeriensis (MDR II) in Swiss mice
Experimental: Efficacy of oral administration of arteether formulation for control of blood induced multi-drug resistant P. yoebi nigerensis (MDR II) in Swiss mice (25±g) was evaluated. The mice was infected intraperitoneafly with 1×10^5 parasitized RBC, and drug treatment 10,15,20 and 30 mg/kg was given once daily for five consecutive days (starting from day 0 to day 4). Blood smears made from tail blood and stained with giemsa were examined periodically till 28 days of infection to record parasitaemia levels and number of surviving/cured mice till 28 days.

P. knowlesi/P. fragile = details: intramuscular, rhesus monkey; cited from earlier work
P. yoelii nigeriensis = details: intramuscular; chloroquine, mefloquine and quinine resistant strain; cited from earlier work

CCOC1O[C@@H]2O[C@@]3(C)CC[C@H]4[C@H](C)CC[C@@H]([C@H]1C)[C@@]24OO3 (stereo partly drawn) [α/β arteether]
Drug absorption by rectal route ([1]; neutralized ground-nut oil, rectal): fairly rapid
Parasitaemia (mean ± SD) ([1]; rectal, 10 mg/kg × 3 days in 2 divided doses at 6 hrs, Day 4): 0.0%
Parasitaemia (mean ± SD) ([1]; rectal, 10 mg/kg × 3 days in 2 divided doses at 6 hrs, Day 5): 0.0%
Parasitaemia (mean ± SD) ([1]; rectal, 10 mg/kg × 3 days in 2 divided doses at 6 hrs, Day 11): 10.25 ± 10.0%
Parasitaemia (mean ± SD) ([1]; rectal, 10 mg/kg × 3 days in 2 divided doses at 6 hrs, Day 28): 0.0%
Number of animals (in parenthesis) ([1]; rectal, 10 mg/kg × 3 days in 2 divided doses, Day 11, 8 at Day 5): 4
Number of animals (in parenthesis) ([1]; rectal, 10 mg/kg × 3 days in 2 divided doses, Day 28, 8 at Day 5): 1
Parasitaemia (mean ± SD) ([1]; rectal, 10 mg/kg × 3 days, Day 4): 0.0002 ± 0.001%
Number of animals negative (-ve) ([1]; rectal, 10 mg/kg × 3 days, Day 4, of 8): 6
Parasitaemia (mean ± SD) ([1]; rectal, 10 mg/kg × 3 days, Day 5): 0.002 ± 0.080%
Number of animals negative (-ve) ([1]; rectal, 10 mg/kg × 3 days, Day 5, of 8): 6
Parasitaemia (mean ± SD) ([1]; rectal, 10 mg/kg × 3 days, Day 11): 0.0%
Number of animals (in parenthesis) ([1]; rectal, 10 mg/kg × 3 days, Day 11, 8 at Day 5): 3
Parasitaemia (mean ± SD) ([1]; rectal, 10 mg/kg × 3 days, Day 28): 0.0%
Number of animals (in parenthesis) ([1]; rectal, 10 mg/kg × 3 days, Day 28, 8 at Day 5): 3
Parasitaemia (mean ± SD) ([1]; rectal, 15 mg/kg × 3 days in 2 divided doses at 6 hrs, Day 4): 0.0%
Parasitaemia (mean ± SD) ([1]; rectal, 15 mg/kg × 3 days in 2 divided doses at 6 hrs, Day 5): 0.0%
Parasitaemia (mean ± SD) ([1]; rectal, 15 mg/kg × 3 days in 2 divided doses at 6 hrs, Day 11): 0.0%
Parasitaemia (mean ± SD) ([1]; rectal, 15 mg/kg × 3 days in 2 divided doses at 6 hrs, Day 28): 0.0%
Number of animals (in parenthesis) ([1]; rectal, 15 mg/kg × 3 days in 2 divided doses, Day 11, 8 at Day 5): 4
Number of animals (in parenthesis) ([1]; rectal, 15 mg/kg × 3 days in 2 divided doses, Day 28, 8 at Day 5): 4
Parasitaemia (mean ± SD) ([1]; rectal, 15 mg/kg × 3 days, Day 4): 0.0%
Parasitaemia (mean ± SD) ([1]; rectal, 15 mg/kg × 3 days, Day 5): 0.0%
Parasitaemia (mean ± SD) ([1]; rectal, 15 mg/kg × 3 days, Day 11): 0.0%
Number of animals (in parenthesis) ([1]; rectal, 15 mg/kg × 3 days, Day 11, 8 at Day 5): 4
Parasitaemia (mean ± SD) ([1]; rectal, 15 mg/kg × 3 days, Day 28): 0.0%
Number of animals (in parenthesis) ([1]; rectal, 15 mg/kg × 3 days, Day 28, 8 at Day 5): 4
Parasitaemia (mean ± SD) ([1]; rectal, 20 mg/kg × 3 days in 2 divided doses at 6 hrs, Day 4): 0.0%
Parasitaemia (mean ± SD) ([1]; rectal, 20 mg/kg × 3 days in 2 divided doses at 6 hrs, Day 5): 0.0%
Parasitaemia (mean ± SD) ([1]; rectal, 20 mg/kg × 3 days in 2 divided doses at 6 hrs, Day 11): 0.0%
Parasitaemia (mean ± SD) ([1]; rectal, 20 mg/kg × 3 days in 2 divided doses at 6 hrs, Day 28): 0.0%
Number of animals (in parenthesis) ([1]; rectal, 20 mg/kg × 3 days in 2 divided doses, Day 11, 8 at Day 5): 6
Number of animals (in parenthesis) ([1]; rectal, 20 mg/kg × 3 days in 2 divided doses, Day 28, 8 at Day 5): 6
Parasitaemia (mean ± SD) ([1]; rectal, 20 mg/kg × 3 days, Day 4): 0.0%
Parasitaemia (mean ± SD) ([1]; rectal, 20 mg/kg × 3 days, Day 5): 0.0%
Parasitaemia (mean ± SD) ([1]; rectal, 20 mg/kg × 3 days, Day 11): 0.0%
Number of animals (in parenthesis) ([1]; rectal, 20 mg/kg × 3 days, Day 11, 8 at Day 5): 5
Parasitaemia (mean ± SD) ([1]; rectal, 20 mg/kg × 3 days, Day 28): 0.0%
Number of animals (in parenthesis) ([1]; rectal, 20 mg/kg × 3 days, Day 28, 8 at Day 5): 5
Suppression of parasitaemia after treatment ([1]; rectal, 10.0, 15.0 and 20.0 mg/kg, upto 5 days): suppressed the parasitaemia
minimal effective dose ([2]; Plasmodium yoelii, po, read-out: Curative dose / dose needed for total clearance): 60 mg/kg
Parasitaemia ([2]; oral, DMSO-distilled water, 40 mg/kg × 5, Day 4): Nil
Parasitaemia ([2]; oral, DMSO-distilled water, 40 mg/kg × 5, Day 7): Nil
Parasitaemia ([2]; oral, DMSO-distilled water, 40 mg/kg × 5, Day 10): 3.86%
Parasitaemia ([2]; oral, DMSO-distilled water, 40 mg/kg × 5, Day 14): 3.5 ± 8.5%
Parasitaemia ([2]; oral, DMSO-distilled water, 40 mg/kg × 5, Day 21): Nil
Parasitaemia ([2]; oral, DMSO-distilled water, 40 mg/kg × 5, Day 28): Nil
Suppression of parasitaemia ([2]; oral, DMSO-distilled water, 40 mg/kg × 5, MDR strain): transient suppression of parasitaemia, but was not curative
Parasitaemia ([2]; oral, DMSO-distilled water, 60 mg/kg × 5, Day 4): Nil
Parasitaemia ([2]; oral, DMSO-distilled water, 60 mg/kg × 5, Day 7): Nil
Parasitaemia ([2]; oral, DMSO-distilled water, 60 mg/kg × 5, Day 10): Nil
Parasitaemia ([2]; oral, DMSO-distilled water, 60 mg/kg × 5, Day 14): Nil
Parasitaemia ([2]; oral, DMSO-distilled water, 60 mg/kg × 5, Day 21): Nil
Parasitaemia ([2]; oral, DMSO-distilled water, 60 mg/kg × 5, Day 28): Nil
Parasitaemia ([2]; oral, DMSO-distilled water, 80 mg/kg × 5, Day 4): Nil
Parasitaemia ([2]; oral, DMSO-distilled water, 80 mg/kg × 5, Day 7): Nil
Parasitaemia ([2]; oral, DMSO-distilled water, 80 mg/kg × 5, Day 10): Nil
Parasitaemia ([2]; oral, DMSO-distilled water, 80 mg/kg × 5, Day 14): Nil
Parasitaemia ([2]; oral, DMSO-distilled water, 80 mg/kg × 5, Day 21): Nil
Parasitaemia ([2]; oral, DMSO-distilled water, 80 mg/kg × 5, Day 28): Nil
Parasitaemia ([2]; oral, DMSO-distilled water, 100 mg/kg × 5, Day 4): Nil
Parasitaemia ([2]; oral, DMSO-distilled water, 100 mg/kg × 5, Day 7): Nil
Parasitaemia ([2]; oral, DMSO-distilled water, 100 mg/kg × 5, Day 10): Nil
Parasitaemia ([2]; oral, DMSO-distilled water, 100 mg/kg × 5, Day 14): Nil
Parasitaemia ([2]; oral, DMSO-distilled water, 100 mg/kg × 5, Day 21): Nil
Parasitaemia ([2]; oral, DMSO-distilled water, 100 mg/kg × 5, Day 28): Nil
Curative action (elimination of parasitaemia) ([2]; oral, DMSO-distilled water, 60 and 80 mg/kg × 5, upto 28 days): curative
Bioavailability by oral route [2]: low
Bioavailability by oral route ([2]; listed as arteether α/β): of lower order
Parasitaemia (mean ± SD) ([3]; 10 mg/kg × 5 days, Day 6): 0.9 ± 1.0%
Parasitaemia (mean ± SD) ([3]; 10 mg/kg × 5 days, Day 9): 41 ± 32.8%
Parasitaemia (mean ± SD) ([3]; 10 mg/kg × 5 days, Day 12): 0.0%
Number of mice surviving ([3]; 10 mg/kg × 5 days, Day 12, of 8): 2
Parasitaemia (mean ± SD) ([3]; 10 mg/kg × 5 days, Day 14): 0.0%
Number of mice surviving ([3]; 10 mg/kg × 5 days, Day 14, of 8): 2
Parasitaemia (mean ± SD) ([3]; 10 mg/kg × 5 days, Day 28): 0.0%
Number of mice surviving ([3]; 10 mg/kg × 5 days, Day 28, of 8): 2
Parasitaemia (mean ± SD) ([3]; 15 mg/kg × 5 days, Day 6): 0.0%
Parasitaemia (mean ± SD) ([3]; 15 mg/kg × 5 days, Day 9): 5.12 ± 5.7%
Parasitaemia (mean ± SD) ([3]; 15 mg/kg × 5 days, Day 12): 0.0%
Number of mice surviving ([3]; 15 mg/kg × 5 days, Day 12, of 8): 4
Parasitaemia (mean ± SD) ([3]; 15 mg/kg × 5 days, Day 14): 0.0%
Number of mice surviving ([3]; 15 mg/kg × 5 days, Day 14, of 8): 4
Parasitaemia (mean ± SD) ([3]; 15 mg/kg × 5 days, Day 28): 0.0%
Number of mice surviving ([3]; 15 mg/kg × 5 days, Day 28, of 8): 4
Parasitaemia (mean ± SD) ([3]; 20 mg/kg × 5 days, Day 6): 0.0%
Parasitaemia (mean ± SD) ([3]; 20 mg/kg × 5 days, Day 9): 3.75 ± 10.6%
Parasitaemia (mean ± SD) ([3]; 20 mg/kg × 5 days, Day 12): 18.8 ± 32.5%
Parasitaemia (mean ± SD) ([3]; 20 mg/kg × 5 days, Day 14): 0.0%
Number of mice surviving ([3]; 20 mg/kg × 5 days, Day 14, of 8): 5
Parasitaemia (mean ± SD) ([3]; 20 mg/kg × 5 days, Day 28): 0.0%
Number of mice surviving ([3]; 20 mg/kg × 5 days, Day 28, of 8): 5
Parasitaemia (mean ± SD) ([3]; 30 mg/kg × 5 days, Day 6): 0.0%
Parasitaemia (mean ± SD) ([3]; 30 mg/kg × 5 days, Day 9): 0.0%
Parasitaemia (mean ± SD) ([3]; 30 mg/kg × 5 days, Day 12): 0.0%
Parasitaemia (mean ± SD) ([3]; 30 mg/kg × 5 days, Day 14): 0.0%
Number of mice surviving ([3]; 30 mg/kg × 5 days, Day 14, of 8): 8
Parasitaemia (mean ± SD) ([3]; 30 mg/kg × 5 days, Day 28): 0.0%
Number of mice surviving ([3]; 30 mg/kg × 5 days, Day 28, of 8): 8
Cure of experimental cerebral malaria (P. knowlesi/P. fragile): cures experimental cerebral malaria infections
Antimalarial activity (P. yoelii nigeriensis): shows antimalarial activity
